Laboratory results reported in patent US8124793B2, “Derivatives of ethylene methanedisulfonate as cancer chemotherapeutic agents” (priority 2007, dated 2012).

Experiments:
[1] = system: EKVX; experiment: NCI screen, growth of human tumor cells: Non-Small Cell Lung EKVX; assay type: cell-based; conditions: EKVX
Experimental: (§1) In the NCI screening process, each compound was tested and described by a minimum of 60 data points. The test data include, but are not limited to the type of cancer, the molar concentration used in the screen, and the percent growth of the cancer. In some cases, NMR and elemental analysis were used for structural assignment.

[2] = system: HOP-18; experiment: NCI screen, growth of human tumor cells: Non-Small Cell Lung HOP-18; assay type: cell-based
Experimental: as §1

[3] = system: human cancer cells; experiment: NCI screen summary over the cancers tested (negative growth of human cancer cells); assay type: cell-based; conditions: 10^−4 M conc.; cancers with negative growth / cancers tested
Experimental: as §1
The derivatives in the tables are grouped using the same category as in the tables 1-6.

[4] = system: NCI-H226; experiment: NCI screen, growth of human tumor cells: Non-Small Cell Lung NCI-H226; assay type: cell-based
How it was run: (§2)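 Under the NCI protocol, every compound is profiled with sixty or more data points. Each point ties a cancer type and a molar screening concentration to a percent growth value.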

[5] = system: UACC-62; experiment: NCI screen, growth of human tumor cells: Melanoma UACC-62; assay type: cell-based; conditions: UACC-62 (Melanoma), 10^−4 molar
How it was run: as §2

[6] = system: BT-549; experiment: NCI screen, growth of human tumor cells: Breast Cancer BT-549; assay type: cell-based
How it was run: as §2

Row | Structure (SMILES) | % Growth ([1]; 10^−4 molar) [%] | % Growth ([1]; 10^−5 molar) [%] | % Growth ([1]; 10^−6 molar) [%] | % Growth ([1]; 10^−7 molar) [%] | % Growth ([1]; 10^−8 molar) [%] | melting point [°C] | % Growth ([2]; HOP-18, 10^−4 molar) [%] | % Growth ([2]; HOP-18, 10^−5 molar) [%] | % Growth ([2]; HOP-18, 10^−6 molar) [%] | % Growth ([2]; HOP-18, 10^−7 molar) [%] | % Growth ([2]; HOP-18, 10^−8 molar) [%] | Percentage of cancers showing negative growth cancers tested [3] | % Growth ([4]; NCI-H226, 10^−4 molar) [%] | % Growth ([4]; NCI-H226, 10^−5 molar) [%] | % Growth ([4]; NCI-H226, 10^−6 molar) [%] | % Growth ([4]; NCI-H226, 10^−7 molar) [%] | % Growth ([4]; NCI-H226, 10^−8 molar) [%] | also measured
1 | O=S1(=O)OCCOS(=O)(=O)C1(Br)Br [NSC 648304, ethylene dibromomethanedisulfonate] | 51 | 57 | 58 | 62 | 58 | 214 to 220 | 53 | 75 | 52 | 14 | 42 | 10^−4 M conc. = 1/3 = 33% | −1 | 49 | 47 | 54 | 62 | 
2 | O=S1(=O)OCCOS(=O)(=O)C1Br [NSC 648305, ethylene bromomethanedisulfonate] | 51 | 56 | 59 | 60 | 65 | 128 to 134 | −61 | 68 | 49 | 63 | 63 | 10^−4 M conc. = 1/3 = 33% | 7 | 16 | 20 | 21 | 43 | 
3 | O=S1(=O)OCCOS(=O)(=O)C1I [NSC 648309, ethylene iodomethanedisulfonate] |  |  |  |  |  | 144 to 160 |  |  |  |  |  | 10^−4 M conc. = 0/2 = 0% |  |  |  |  |  | percent of growth of human tumor cells [5]: 17%; percent of growth of human tumor cells ([4]; NCI-H226 (Non-Small Cell Lung), 10^−4 molar): 20%
4 | O=S1(=O)OCCOS(=O)(=O)C1(F)Br [NSC 665943, ethylene fluorobromomethanedisulfonate] |  |  |  |  |  | 82 to 90 |  |  |  |  |  | 10^−4 M conc. = 0/1 = 0% |  |  |  |  |  | % Growth ([6]; BT-549, 10^−4 molar): 12%; % Growth ([6]; BT-549, 10^−5 molar): 28%; % Growth ([6]; BT-549, 10^−6 molar): 52%; % Growth ([6]; BT-549, 10^−7 molar): 42%; % Growth ([6]; BT-549, 10^−8 molar): 44%
